System: type I collagen protein expression in dermal fibroblast cells
Assay: Increase in type I collagen protein expression in dermal fibroblast cells cultured in vitro (immunolabelling, confocal microscopy, image analysis)
Format: cell-based, human
Conditions: 3 days, dermal fibroblasts, ratio relative to nontreated cells (NT = 1), mean of 4 assays
Method: A Q. amara wood extract at 5% (w/w) obtained according to Example 1a) was tested on dermal fibroblast cells cultured in vitro. The extract was tested at final concentrations of 0.01% and 0.05% by volume in the culture medium. Preferentially, the final concentration was 0.01% (v/v).
Specifically, dermal fibroblasts from the abdomen of a donor were seeded into a culture chamber (8-well) and amplified in FGM (Fibroblast Growth Media) culture medium containing an antibiotic, normocin, for 3 or 4 days until confluence, the cell stage for which 100% of the cultured cells adhere to one another, forming a uniform cell layer.
The confluent cells were then treated in this same culture medium for 3 days with a Q. amara wood extract at a final concentration in the culture medium of 0.01% or 0.05% (v/v) (Table 1). Other control active ingredients were tested (Table 1): vitamin C (50 μg/ml) or retinaldehyde (1 μM) or TGFβ1 (1 ng/ml) (Transforming Growth Factor β1).
The culture media (FGM) containing the dermal fibroblast cells treated with an active agent, or the nontreated culture media, contained moreover 5 μg/ml of vitamin C, enabling the newly synthesized collagen to be secreted out of the cell.
After 3 days of incubation, the cells were rinsed with a phosphate buffered saline (PBS) buffer containing calcium, magnesium and antibiotics, and then fixed in cold methanol for 10 minutes with a view to performing immunolabelling.
An anti-type I collagen antibody was added to the medium with a view to performing immunolabelling.
The increase in type I collagen protein expression was observed by confocal microscopy (LSM 700, Zeiss, LePecq, France) and quantified by image analysis (FIG. 1).
The type I collagen protein expression was calculated as a ratio relative to a theoretical expression equal to 1 in the case of nontreated fibroblast cells (NT). The mean protein expression was obtained through the mean of 4 distinct assays (Table 1).

Molecule: O=C1O[C@H]([C@@H](O)CO)C(O)=C1O [Vitamin C, vitamin C]
- Mean increase in type I collagen protein expression (50 μg/ml): 2.31

Molecule: TGFβ: Transforming Growth Factor β1, control active ingredient
- Mean increase in type I collagen protein expression (1 ng/ml): 1.42

Molecule: CC1=C(/C=C/C(C)=C/C=C/C(C)=C/C=O)C(C)(C)CCC1 [Retinaldehyde, retinaldehyde]
- Mean increase in type I collagen protein expression (1 μM): 2.06

Reference: US20150056310A1, “COSMETIC METHOD FOR INCREASING COLLAGEN EXPRESSION IN SKIN COMPRISING TOPICALLY APPLYING AN EXTRACT OF QUASSIA AMARA” (BASF Beauty Care Solutions France S.A.S., priority 2013, published 2015)
